Data: patent publication US20050038111A1, “Pharmaceutical formulation comprising bicalutamide” (priority 2001, published 2005)
Where a name gives a salt, the structure may show the parent alone.

Legend:
[1] = Crystallinity assessment by X-ray powder diffraction (XRPD); type: physicochemical
Protocol: Dispersion prepared from a solution of bicalutamide and tamoxifen citrate.
X-ray diffraction analysis was performed according to standard methods which can be found in e.g. Bunn, C. W. (1948), Chemical Crystallography, Clarendon Press, London; or Klug, H. P. & Alexander, L. E. (1974), X-Ray Diffraction Procedures, John Wiley and Sons, New York.

[2] = pH shift dissolution test (SGF pH 1.5 then pH 6.5); type: physicochemical; details: 1 h SGF pH 1.5 then 1 h at pH 6.5

## CC/C(=C(\c1ccccc1)c1ccc(OCCN(C)C)cc1)c1ccccc1 [tamoxifen citrate, (Z)-2-[p-(1,2-diphenylbut-1-enyl)phenoxy]ethyldimethylamine]
[1]
  crystalline tamoxifen citrate by XRPD: crystalline
[2]
  tamoxifen in solution post shift: approx. 80%
